Results reported in patent US20250287945A1, “COMPOSITIONS FOR FUNGAL CONTROL AND RELATED METHODS” (priority 2021, published 2025).

Experiments:
Fusarium culmorum = format: cell-based
Fusarium graminearum = format: cell-based; conditions: 22 hours incubation; modified RPMI medium, 25 degrees Celsius; concentration not given
Phytophthora infestans = format: cell-based; conditions: 7 days incubation; modified RPMI medium, 25 degrees Celsius; concentration not given
Zymoseptoria tritici = format: cell-based
[1] = system: Fusarium conidial suspension; assay: Fusarium viability colorimetric assay (PrestoBlue resazurin); format: cell-based; conditions: four replicates, protocol and peptides as third experiment (175 and 375 micromolar), concentration not given
Experimental: A Fusarium conidial suspension was prepared from a 7-day culture of Fusarium biomass grown on potato dextrose agar for 7 days, and quantified by hemocytometer, as described in Example 4. Solutions of fenpiclonil (Millipore Sigma, Cat. no. 36532) and of the individual peptides were prepared in 50% (w/v) ethanol in water, and tested using a PrestoBlue™ (resazurin) viability colorimetric assay as described in Example 4.
The Fusarium conidial suspension, peptide or control treatment solution, and potato dextrose broth (Alpha Biosciences, catalogue no. P16-126) were added to each well of a 96-well plate to obtain the desired treatment concentration and 1×10^6 conidia/mL in a final volume of 150 microliters per well. The plates were covered and incubated at 30° C. for 18 hours and 200 rpm. Fifteen microliters of PrestoBlue™ Cell Viability Reagent (Thermofisher Scientific, Cat no. A13262) were added to each well, and the plate was further incubated before measuring fluorescence at 590 nm emission with excitation at 560 nm using a spectrophotometer (BioTek Synergy H1 Microplate Reader, Fischer Scientific, Cat. no. 11-120-533).

[2] = system: Botrytis cinarea (strain CBS 261.71); assay: Botrytis viability colorimetric assay (PrestoBlue resazurin); format: cell-based, Botrytis cinerea; conditions: Botrytis, CBS261; 375 micromolar; four replicates; read-out: Percent Inhibition (Botrytis), Mean
[3] = system: Nicotiana benthamiana leaves; assay: Phytotoxicity at the treatment site on detached leaves; format: in vivo; conditions: 275 micromolar in 50% ethanol, 100 microliters on leaf quadrant

Molecule: WHWLQLKPGQPMYRRRRRRRR [SEQ ID NO: 2240]
- inhibition relative to a control (Fusarium culmorum): ≥ 50%
- inhibition relative to a control (Fusarium graminearum): ≥ 50%
- inhibition relative to a control (Phytophthora infestans): ≥ 50%
- inhibition relative to a control (Zymoseptoria tritici): ≥ 50%

Molecule: N#Cc1c[nH]cc1-c1cccc(Cl)c1Cl [Fenpiclonil, 4-(2,3-dichlorophenyl)-1H-pyrrole-3-carbonitrile, reference compound]
- Percent Inhibition (Fusarium), Experiment 4, Mean ([1]; Experiment 4): 82.25%
- Percent Inhibition (Fusarium), Experiment 5, Mean ([1]; Experiment 5): 79.19%
- inhibition at 375 µM [2]: 75.8%
- phytotoxicity (tissue necrosis at the treatment site) [3]: phytotoxic
